Measured values as given in publication PMC9939733 (The Journal of Biological Chemistry, 2023).
Substitutions are numbered along the chain they refer to.

What was measured:
Type in all cases: biochemical
R140Q IDH2 = molecular target: T1, R140Q IDH2 (Homo sapiens, UniProt P48735, R140Q); assay: Absorbance assay, variant activity in the presence of equimolar 2OG (inhibition screen); conditions: 6.0 mM 2OG and 6.0 mM test compound, 0.03 μM R140Q IDH2, 50 μM NADPH
T1 construct: made in house; host or cells: Sf21 insect cells (cell pellets prepared at Evotec)
T1 sequence (P48735 40-452 R140Q): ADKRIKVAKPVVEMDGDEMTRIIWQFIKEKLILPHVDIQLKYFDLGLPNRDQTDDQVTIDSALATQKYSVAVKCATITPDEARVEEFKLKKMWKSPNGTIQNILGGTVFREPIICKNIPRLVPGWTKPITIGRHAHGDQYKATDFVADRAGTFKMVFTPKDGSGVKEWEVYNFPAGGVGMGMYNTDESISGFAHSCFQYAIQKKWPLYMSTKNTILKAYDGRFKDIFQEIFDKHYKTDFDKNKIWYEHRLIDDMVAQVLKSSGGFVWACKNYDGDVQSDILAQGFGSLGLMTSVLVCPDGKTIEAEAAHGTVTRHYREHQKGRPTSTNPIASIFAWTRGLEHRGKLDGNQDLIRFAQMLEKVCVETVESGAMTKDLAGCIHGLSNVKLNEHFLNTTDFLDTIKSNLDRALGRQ
Protocol: (§1) Compounds were dispensed using a CyBio SDW-CW CyBi-Well Simultaneous Pipettor and assay started using a ThermoFisher Multidrop Combi reagent dispenser.
(§2) Reactions were performed as technical quadruplicates.

R172K IDH2 = molecular target: T2, R172K IDH2 (Homo sapiens, UniProt P48735, R172K); assay: as above; conditions: 1.0 mM 2OG and 1.0 mM test compound, 0.03 μM R172K IDH2, 50 μM NADPH
T2 construct: made in house; host or cells: Sf21 insect cells (cell pellets prepared at Evotec)
T2 sequence (P48735 40-452 R172K): T1 sequence (P48735 40-452 R140Q) with Q101R, R133K
Protocol: as §1, §2

WT IDH1 [1] = molecular target: T3, WT IDH1 (Homo sapiens, UniProt O75874); assay: Absorbance assay, WT activity in the presence of equimolar DL-isocitrate (inhibition); conditions: […] isocitrate and […] test compound, 75 μM NADP+, 2.0 nM WT IDH1
T3 construct: made in house; host or cells: Escherichia coli BL21(DE3) pLyS
Protocol: as §1, §2

WT IDH2 [2] = molecular target: T4, WT IDH2 (Homo sapiens, UniProt P48735); assay: as above; conditions: […] isocitrate and […] test compound, 75 μM NADP+, 2.0 nM WT IDH2
T4 construct: made in house; host or cells: Sf21 insect cells (cell pellets prepared at Evotec)
T4 sequence (P48735 40-452): T1 sequence (P48735 40-452 R140Q) with Q101R
Protocol: as §1, §2

WT IDH1 [3] = molecular target: T3, WT IDH1; assay: Absorbance assay, substrate activity in the absence of DL-isocitrate; conditions: no DL-isocitrate; […] test compound, 75 μM NADP+, 2.0 nM WT IDH1; compared to DL-isocitrate
Protocol: as §1, §2

WT IDH2 [4] = molecular target: T4, WT IDH2; assay: as above; conditions: no DL-isocitrate; […] test compound, 75 μM NADP+, 2.0 nM WT IDH2; compared to DL-isocitrate
Protocol: as §1, §2

R132H IDH1 = R132H IDH1 (Homo sapiens, UniProt O75874, R132H); assay: Absorbance assay, variant activity in the presence of equimolar 2OG (inhibition screen); parameters: made in house; host or cells: Escherichia coli BL21(DE3) pLyS; conditions: […] 2OG and […] test compound, 0.03 μM R132H IDH1, 50 μM NADPH
Protocol: as §1, §2

Chain of R132H IDH1 (O75874 whole entry R132H): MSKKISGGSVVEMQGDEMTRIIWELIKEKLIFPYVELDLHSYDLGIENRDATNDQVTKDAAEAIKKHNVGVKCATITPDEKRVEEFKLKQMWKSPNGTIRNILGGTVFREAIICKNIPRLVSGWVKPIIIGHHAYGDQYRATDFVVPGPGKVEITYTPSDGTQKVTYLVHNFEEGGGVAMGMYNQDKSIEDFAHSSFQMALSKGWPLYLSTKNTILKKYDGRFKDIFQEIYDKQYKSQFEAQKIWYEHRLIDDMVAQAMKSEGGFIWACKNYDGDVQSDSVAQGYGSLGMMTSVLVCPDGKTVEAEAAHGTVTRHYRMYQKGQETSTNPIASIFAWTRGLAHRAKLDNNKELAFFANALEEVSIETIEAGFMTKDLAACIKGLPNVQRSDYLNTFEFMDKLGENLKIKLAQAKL
T3 sequence (O75874 whole entry): as the sequence (O75874 whole entry R132H) above, with H132R counted along it

| SMILES | activity [%] (%-substrate conversion after 20 min incubation) (R140Q IDH2) | activity [%] (%-substrate conversion after 20 min incubation) (R172K IDH2) | activity [%] (%-substrate conversion after 20 min incubation) (WT IDH1 [1]) | activity [%] (%-substrate conversion after 20 min incubation) (WT IDH2 [2]) | activity [%] (%-substrate conversion after 20 min incubation) (WT IDH1 [3]) | activity [%] (%-substrate conversion after 20 min incubation) (WT IDH2 [4]) | activity [%] (%-substrate conversion after 20 min incubation) (R132H IDH1) |
| --- | --- | --- | --- | --- | --- | --- | --- |
| CC1(C)C(C(=O)O)C1C(=O)C(=O)O (mixture of isomers) [compound 22] | 112 ± 4% | 110 ± 10% | 96±1% | 96±1% | – | – | 92 ± 5% |
| O=C(O)C(=O)C1CCC(C(=O)O)CC1 (mixture of isomers) [compound 25] | – | – | 104±6% | 92±9% | – | – | – |
| CC(C)(C)CCC(CC(=O)O)C(=O)C(=O)O (racemic) [compound 5] | 146 ± 4% | 98 ± 3% | 95±6% | 98±1% | < 10% | < 10% | 142 ± 14% |
| O=C(O)CC(CCCc1ccccc1)C(=O)C(=O)O (racemic) [compound 6] | 239 ± 37% | 93 ± 1% | 96±1% | 99±1% | < 10% | < 10% | 182 ± 10% |
| COc1ccc(CC(CC(=O)O)C(=O)C(=O)O)cc1 (racemic) [compound 9] | 125 ± 3% | 111 ± 3% | 93±2% | 98±3% | < 10% | < 10% | 200 ± 15% |
| CCCC(CC(=O)C(=O)O)C(=O)O (racemic) [compound 15] | 116 ± 4% | 97 ± 5% | 95±3% | 98±3% | < 10% | < 10% | 101 ± 7% |
| CCCCC(CC(=O)C(=O)O)C(=O)O (racemic) [compound 16] | 131 ± 9% | 100 ± 5% | 102±3% | 100±2% | < 10% | < 10% | 113 ± 4% |
| CC(C)(C)CCC(CC(=O)C(=O)O)C(=O)O (racemic) [compound 17] | 119 ± 5% | 93 ± 3% | 95±7% | 100±2% | < 10% | < 10% | 93 ± 3% |
| O=C(O)C(=O)CC(CCCc1ccccc1)C(=O)O (racemic) [compound 18] | 101 ± 3% | 74 ± 12% | 101±3% | 100±1% | < 10% | < 10% | 82 ± 3% |

Second part, the compound after the results:

| activity [%] (%-substrate conversion after 20 min incubation) (R140Q IDH2) | activity [%] (%-substrate conversion after 20 min incubation) (R172K IDH2) | activity [%] (%-substrate conversion after 20 min incubation) (WT IDH1 [1]) | activity [%] (%-substrate conversion after 20 min incubation) (WT IDH2 [2]) | activity [%] (%-substrate conversion after 20 min incubation) (WT IDH1 [3]) | activity [%] (%-substrate conversion after 20 min incubation) (WT IDH2 [4]) | activity [%] (%-substrate conversion after 20 min incubation) (R132H IDH1) | SMILES |
| --- | --- | --- | --- | --- | --- | --- | --- |
| 394 ± 40% | 110 ± 4% | 96±1% | 95±2% | < 10% | < 10% | 132 ± 3% | O=C(O)C(=O)C1CC1C(=O)O (mixture of isomers) [compound 21] |
| 97 ± 4% | 104 ± 8% | 93±1% | 92±4% | – | – | 94 ± 11% | O=C(O)C(=O)C1CC=CCC1C(=O)O (mixture of isomers) [compound 27] |
| 516 ± 40% | 106 ± 5% | 96±3% | 100±1% | < 10% | < 10% | 186 ± 6% | O=C(O)CC(Cc1ccc(F)cc1)C(=O)C(=O)O (racemic) [compound 8] |
| 117 ± 9% | 112 ± 13% | 94±1% | 98±3% | < 10% | < 10% | 103 ± 2% | CCC(CC(=O)C(=O)O)C(=O)O (racemic) [compound 14] |
| 114 ± 4% | – | – | 99±1% | – | – | 116 ± 4% | O=C(O)C(=O)C1C2C=CC(C2)C1C(=O)O (racemic) [compound 28] |
| 95 ± 7% | 93 ± 7% | 94±2% | 99±1% | – | – | 88 ± 2% | O=C(O)C(=O)c1cccc(C(=O)O)c1 [compound 29] |
| 94 ± 3% | 110 ± 8% | 101±2% | 100±4% | – | – | 103 ± 2% | O=C(O)C(=O)c1ccc(C(=O)O)cc1 [compound 30] |
| 113 ± 4% | 99 ± 3% | 103±1% | 101±2% | – | – | 102 ± 5% | O=C(O)C(=O)c1cscc1C(=O)O [compound 31] |
